In PubChem BioAssay (NCI):
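Grown in 96-well plates, cells were treated for 48 hours with each compound at five concentrations. Insufficient inhibition: endpoint recorded as highest concentration tested. TGI: total growth inhibition.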

How the values were obtained:
Assay in all cases: DTP human tumour cell line panel, 48 h
SK-OV-3 ovarian = system: SK-OV-3 ovarian
M14 melanoma = system: M14 melanoma
KM12 colon = system: KM12 colon
NCI-H522 lung = system: NCI-H522 lung
SN12C renal = system: SN12C renal
UO-31 renal = system: UO-31 renal
SK-MEL-2 melanoma = system: SK-MEL-2 melanoma
LOX IMVI melanoma = system: LOX IMVI melanoma
TK-10 renal = system: TK-10 renal
HOP-18 NSCLC = system: HOP-18 NSCLC
CCRF-CEM leukemia = system: CCRF-CEM leukemia
HOP-62 NSCLC = system: HOP-62 NSCLC
XF 498 CNS = system: XF 498 CNS
SR leukemia = system: SR leukemia
M19-MEL melanoma = system: M19-MEL melanoma
DMS 273 small cell lung = system: DMS 273 small cell lung
OVCAR-5 ovarian = system: OVCAR-5 ovarian
MALME-3M melanoma = system: MALME-3M melanoma
RXF-631 renal = system: RXF-631 renal
RXF 393 renal = system: RXF 393 renal
HCC-2998 colon = system: HCC-2998 colon
SNB-75 CNS = system: SNB-75 CNS
HCT-15 colon = system: HCT-15 colon
A549 NSCLC = system: A549 NSCLC
IGROV1 ovarian = system: IGROV1 ovarian
SW-620 colon = system: SW-620 colon
ACHN renal = system: ACHN renal
SNB-19 CNS = system: SNB-19 CNS
OVCAR-4 ovarian = system: OVCAR-4 ovarian
K-562 leukemia = system: K-562 leukemia
UACC-257 melanoma = system: UACC-257 melanoma
NCI-H23 lung = system: NCI-H23 lung
DMS 114 small cell lung = system: DMS 114 small cell lung
SK-MEL-5 melanoma = system: SK-MEL-5 melanoma
MOLT-4 leukemia = system: MOLT-4 leukemia
EKVX NSCLC = system: EKVX NSCLC
OVCAR-8 ovarian = system: OVCAR-8 ovarian
CAKI-1 renal = system: CAKI-1 renal
SK-MEL-28 melanoma = system: SK-MEL-28 melanoma
SF-295 CNS = system: SF-295 CNS
SNB-78 CNS = system: SNB-78 CNS
786-0 renal = system: 786-0 renal
SF-539 CNS = system: SF-539 CNS
SF-268 CNS = system: SF-268 CNS
DLD-1 colon = system: DLD-1 colon
HCT-116 colon = system: HCT-116 colon
A498 renal = system: A498 renal
KM20L2 colon = system: KM20L2 colon
HL-60(TB) leukemia = system: HL-60(TB) leukemia
UACC-62 melanoma = system: UACC-62 melanoma
HT29 colon = system: HT29 colon
NCI-H460 lung = system: NCI-H460 lung
U251 CNS = system: U251 CNS
LXFL 529 NSCLC = system: LXFL 529 NSCLC
RPMI-8226 leukemia = system: RPMI-8226 leukemia
OVCAR-3 ovarian = system: OVCAR-3 ovarian
HOP-92 NSCLC = system: HOP-92 NSCLC
NCI-H226 lung = system: NCI-H226 lung
COLO 205 colon = system: COLO 205 colon

With `CN(C)c1ccc(Cc2cc(C(C)(C)C)cc(C(C)(C)C)c2O)cc1` the TGI (SK-OV-3 ovarian) was 74.5 µM, the TGI (M14 melanoma) was 41.7 µM and the TGI (KM12 colon) was 24.6 µM. For the same compound, the TGI (NCI-H522 lung) was 37 µM, the TGI (SN12C renal) was 30.2 µM and the TGI (UO-31 renal) was 32.7 µM. The TGI (SK-MEL-2 melanoma) was 20.1 µM, the TGI (LOX IMVI melanoma) was 22.3 µM and the TGI (TK-10 renal) was 27.1 µM. For the same compound, the TGI (HOP-18 NSCLC) was 80.5 µM, the TGI (CCRF-CEM leukemia) was over 100 µM and the TGI (HOP-62 NSCLC) was 37.2 µM. It also gave a TGI (XF 498 CNS) of 36.5 µM, a TGI (SR leukemia) of 33.8 µM and a TGI (M19-MEL melanoma) of 49.4 µM. It also gave a TGI (DMS 273 small cell lung) of 34 µM, a TGI (OVCAR-5 ovarian) of 18.5 µM and a TGI (MALME-3M melanoma) of 53 µM. For the same compound, the TGI (RXF-631 renal) was 36.3 µM, the TGI (RXF 393 renal) was 30.8 µM and the TGI (HCC-2998 colon) was 35.5 µM. The TGI (SNB-75 CNS) was 79.6 µM, the TGI (HCT-15 colon) was 34.3 µM and the TGI (A549 NSCLC) was 73.6 µM. The TGI (IGROV1 ovarian) was 47.8 µM, the TGI (SW-620 colon) was 30.6 µM and the TGI (ACHN renal) was 33.2 µM. It also gave a TGI (SNB-19 CNS) of 47.1 µM, a TGI (OVCAR-4 ovarian) of 82.7 µM and a TGI (K-562 leukemia) of 26.2 µM. For the same compound, the TGI (UACC-257 melanoma) was 34.9 µM, the TGI (NCI-H23 lung) was 33.3 µM and the TGI (DMS 114 small cell lung) was 28.6 µM. For the same compound, the TGI (SK-MEL-5 melanoma) was 29.5 µM, the TGI (MOLT-4 leukemia) was 31.5 µM and the TGI (EKVX NSCLC) was 46.4 µM. The TGI (OVCAR-8 ovarian) was 42 µM, the TGI (CAKI-1 renal) was 39.6 µM and the TGI (SK-MEL-28 melanoma) was 42.6 µM. The TGI (SF-295 CNS) was 35.6 µM, the TGI (SNB-78 CNS) was 37.4 µM and the TGI (786-0 renal) was 33.8 µM. The TGI (SF-539 CNS) was 43.1 µM, the TGI (SF-268 CNS) was 35.6 µM and the TGI (DLD-1 colon) was over 100 µM. For the same compound, the TGI (HCT-116 colon) was 26 µM, the TGI (A498 renal) was 34 µM and the TGI (KM20L2 colon) was 40.4 µM. It also gave a TGI (HL-60(TB) leukemia) of over 100 µM, a TGI (UACC-62 melanoma) of 30.2 µM and a TGI (HT29 colon) of 31.1 µM. The TGI (NCI-H460 lung) was 37.5 µM, the TGI (U251 CNS) was 30.1 µM and the TGI (LXFL 529 NSCLC) was 39.4 µM. For the same compound, the TGI (RPMI-8226 leukemia) was 27.8 µM.
With `O=C(/C=C/c1ccccc1O)C(c1ccccc1)c1ccccc1` the TGI (SK-OV-3 ovarian) was over 100 µM, the TGI (M14 melanoma) was over 100 µM and the TGI (KM12 colon) was over 100 µM. For the same compound, the TGI (NCI-H522 lung) was over 100 µM, the TGI (SN12C renal) was over 100 µM and the TGI (UO-31 renal) was over 100 µM. The TGI (SK-MEL-2 melanoma) was over 100 µM, the TGI (LOX IMVI melanoma) was 62.3 µM and the TGI (TK-10 renal) was over 100 µM. It also gave a TGI (HOP-18 NSCLC) of over 100 µM, a TGI (CCRF-CEM leukemia) of over 100 µM and a TGI (HOP-62 NSCLC) of over 100 µM. For the same compound, the TGI (XF 498 CNS) was over 100 µM, the TGI (SR leukemia) was over 100 µM and the TGI (M19-MEL melanoma) was over 100 µM. It also gave a TGI (DMS 273 small cell lung) of over 100 µM, a TGI (OVCAR-5 ovarian) of over 100 µM and a TGI (MALME-3M melanoma) of over 100 µM. For the same compound, the TGI (RXF-631 renal) was over 100 µM, the TGI (OVCAR-3 ovarian) was over 100 µM and the TGI (RXF 393 renal) was over 100 µM. It also gave a TGI (HCC-2998 colon) of over 100 µM, a TGI (SNB-75 CNS) of 75.1 µM and a TGI (HCT-15 colon) of over 100 µM. The TGI (A549 NSCLC) was over 100 µM, the TGI (IGROV1 ovarian) was over 100 µM and the TGI (SW-620 colon) was 27.6 µM. It also gave a TGI (ACHN renal) of over 100 µM, a TGI (SNB-19 CNS) of over 100 µM and a TGI (OVCAR-4 ovarian) of over 100 µM. For the same compound, the TGI (K-562 leukemia) was over 100 µM, the TGI (UACC-257 melanoma) was over 100 µM and the TGI (NCI-H23 lung) was over 100 µM. For the same compound, the TGI (DMS 114 small cell lung) was over 100 µM, the TGI (SK-MEL-5 melanoma) was over 100 µM and the TGI (MOLT-4 leukemia) was over 100 µM. The TGI (EKVX NSCLC) was over 100 µM, the TGI (OVCAR-8 ovarian) was over 100 µM and the TGI (CAKI-1 renal) was over 100 µM. It also gave a TGI (SK-MEL-28 melanoma) of over 100 µM, a TGI (SF-295 CNS) of over 100 µM and a TGI (SNB-78 CNS) of over 100 µM. The TGI (786-0 renal) was over 100 µM, the TGI (SF-539 CNS) was over 100 µM and the TGI (SF-268 CNS) was over 100 µM. It also gave a TGI (HOP-92 NSCLC) of over 100 µM, a TGI (DLD-1 colon) of over 100 µM and a TGI (NCI-H226 lung) of over 100 µM. It also gave a TGI (HCT-116 colon) of over 100 µM, a TGI (A498 renal) of over 100 µM and a TGI (KM20L2 colon) of over 100 µM. The TGI (UACC-62 melanoma) was over 100 µM, the TGI (COLO 205 colon) was over 100 µM and the TGI (HT29 colon) was over 100 µM. The TGI (NCI-H460 lung) was over 100 µM, the TGI (U251 CNS) was over 100 µM and the TGI (LXFL 529 NSCLC) was over 100 µM. It also gave a TGI (RPMI-8226 leukemia) of over 100 µM.
